ChEMBL document CHEMBL4251601 (Eur J Med Chem, 2018)

What was measured:
[1] = test system: U-87 MG; test: Antitumor activity against luciferase-fused human U87MG cells orthotopically xenografted in nude mouse assessed as increase in mouse life span at 6.25 mg/kg, po qd for 5 weeks relative to control; assay type: functional, U-87MG ATCC; details: 840 h
[2] = target: RAC-beta serine/threonine-protein kinase (Homo sapiens) (UniProt P31751); test: Inhibition of recombinant full length human His-tagged AKT2 expressed in baculovirus expression system at 1 uM by TR-FRET assay relative to control
RAC-beta serine/threonine-protein kinase (Homo sapiens), sequence (P31751 whole entry): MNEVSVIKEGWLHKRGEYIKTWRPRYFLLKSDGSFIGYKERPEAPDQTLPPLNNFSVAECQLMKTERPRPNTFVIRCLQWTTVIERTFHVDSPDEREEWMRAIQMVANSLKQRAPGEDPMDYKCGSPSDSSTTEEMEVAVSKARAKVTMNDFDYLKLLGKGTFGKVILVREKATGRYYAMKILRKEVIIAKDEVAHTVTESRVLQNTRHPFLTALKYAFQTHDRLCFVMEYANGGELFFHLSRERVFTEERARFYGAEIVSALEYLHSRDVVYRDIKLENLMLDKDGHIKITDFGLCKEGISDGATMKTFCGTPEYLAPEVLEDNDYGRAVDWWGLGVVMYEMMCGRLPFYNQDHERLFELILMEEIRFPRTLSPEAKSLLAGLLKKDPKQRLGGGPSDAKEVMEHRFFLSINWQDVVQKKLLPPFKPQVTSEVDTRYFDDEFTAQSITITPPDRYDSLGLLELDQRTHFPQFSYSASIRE

[3] = target: Mitogen-activated protein kinase 8 (Homo sapiens) (UniProt P45983); test: Inhibition of recombinant human full length His-tagged JNK1 expressed in baculovirus expression system at 1 uM by Z'-Lyte assay relative to control
Mitogen-activated protein kinase 8 (Homo sapiens), sequence (P45983 whole entry): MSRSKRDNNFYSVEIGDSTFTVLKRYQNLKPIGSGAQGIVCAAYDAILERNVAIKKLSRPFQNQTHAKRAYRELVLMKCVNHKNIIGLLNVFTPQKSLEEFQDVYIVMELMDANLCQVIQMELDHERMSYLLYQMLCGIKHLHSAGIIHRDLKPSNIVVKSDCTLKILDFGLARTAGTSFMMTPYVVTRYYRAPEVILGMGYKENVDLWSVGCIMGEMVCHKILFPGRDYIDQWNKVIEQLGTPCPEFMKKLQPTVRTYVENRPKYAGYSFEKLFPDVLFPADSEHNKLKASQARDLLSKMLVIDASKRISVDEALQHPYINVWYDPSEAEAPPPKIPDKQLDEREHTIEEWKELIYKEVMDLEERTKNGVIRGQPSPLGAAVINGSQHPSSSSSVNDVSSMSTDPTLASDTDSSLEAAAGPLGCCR

[4] = target: Cyclin-dependent kinase 4/cyclin D1 (Homo sapiens) (UniProt P11802+P24385); test: Inhibition of recombinant full length human GST-tagged CDK4/Cyclin-D1 expressed in baculovirus expression system at 1 uM by TR-FRET assay relative to control
[5] = target: Mitogen-activated protein kinase kinase kinase 9 (Homo sapiens) (UniProt P80192); test: Inhibition of recombinant human GST-tagged MLK1 expressed in baculovirus expression system at 1 uM by Z'-Lyte assay relative to control
[6] = target: Tyrosine-protein kinase Lyn (Homo sapiens) (UniProt P07948); test: Inhibition of recombinant human full length GST-tagged Lyn-A expressed in insect cells at 1 uM by Z'-Lyte assay relative to control
[7] = test system: U-87 MG; test: Antitumor activity against luciferase-fused human U87MG cells orthotopically xenografted in nude mouse assessed as tumor growth inhibition at 12.5 mg/kg, po qd for 4 weeks by bioluminescence imaging relative to control; assay type: functional, U-87MG ATCC; details: 672 h, read-out: TGI
[8] = target: G protein-coupled receptor kinase 5 (Homo sapiens) (UniProt P34947); test: Inhibition of recombinant human full length GST-tagged GRK5 expressed in baculovirus expression system at 0.1 uM by Z'-Lyte assay relative to control
G protein-coupled receptor kinase 5 (Homo sapiens), sequence (P34947 whole entry, looked up, the tested form may be a part): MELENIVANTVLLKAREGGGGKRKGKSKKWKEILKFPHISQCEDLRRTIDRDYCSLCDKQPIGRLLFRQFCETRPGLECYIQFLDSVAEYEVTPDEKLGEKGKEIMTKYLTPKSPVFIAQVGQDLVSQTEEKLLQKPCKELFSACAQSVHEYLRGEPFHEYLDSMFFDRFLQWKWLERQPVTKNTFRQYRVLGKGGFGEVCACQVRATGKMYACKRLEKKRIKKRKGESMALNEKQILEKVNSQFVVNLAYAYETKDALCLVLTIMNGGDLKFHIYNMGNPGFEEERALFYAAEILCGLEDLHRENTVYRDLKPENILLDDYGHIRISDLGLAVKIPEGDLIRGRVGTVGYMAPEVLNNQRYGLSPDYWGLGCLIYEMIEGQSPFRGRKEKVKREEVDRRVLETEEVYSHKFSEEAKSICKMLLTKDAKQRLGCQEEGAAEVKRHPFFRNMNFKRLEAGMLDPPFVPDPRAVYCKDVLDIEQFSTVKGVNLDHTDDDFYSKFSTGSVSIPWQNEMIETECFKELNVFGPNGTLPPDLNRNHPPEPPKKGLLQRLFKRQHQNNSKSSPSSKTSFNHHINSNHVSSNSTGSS

[9] = target: Tyrosine-protein kinase Mer (Homo sapiens) (UniProt Q12866); test: Inhibition of recombinant human GST-tagged MERTK (578 to 872 residues) expressed in baculovirus expression system at 1 uM by Z'-Lyte assay relative to control
Tyrosine-protein kinase Mer (Homo sapiens), sequence (Q12866 whole entry, the tested form may be a part): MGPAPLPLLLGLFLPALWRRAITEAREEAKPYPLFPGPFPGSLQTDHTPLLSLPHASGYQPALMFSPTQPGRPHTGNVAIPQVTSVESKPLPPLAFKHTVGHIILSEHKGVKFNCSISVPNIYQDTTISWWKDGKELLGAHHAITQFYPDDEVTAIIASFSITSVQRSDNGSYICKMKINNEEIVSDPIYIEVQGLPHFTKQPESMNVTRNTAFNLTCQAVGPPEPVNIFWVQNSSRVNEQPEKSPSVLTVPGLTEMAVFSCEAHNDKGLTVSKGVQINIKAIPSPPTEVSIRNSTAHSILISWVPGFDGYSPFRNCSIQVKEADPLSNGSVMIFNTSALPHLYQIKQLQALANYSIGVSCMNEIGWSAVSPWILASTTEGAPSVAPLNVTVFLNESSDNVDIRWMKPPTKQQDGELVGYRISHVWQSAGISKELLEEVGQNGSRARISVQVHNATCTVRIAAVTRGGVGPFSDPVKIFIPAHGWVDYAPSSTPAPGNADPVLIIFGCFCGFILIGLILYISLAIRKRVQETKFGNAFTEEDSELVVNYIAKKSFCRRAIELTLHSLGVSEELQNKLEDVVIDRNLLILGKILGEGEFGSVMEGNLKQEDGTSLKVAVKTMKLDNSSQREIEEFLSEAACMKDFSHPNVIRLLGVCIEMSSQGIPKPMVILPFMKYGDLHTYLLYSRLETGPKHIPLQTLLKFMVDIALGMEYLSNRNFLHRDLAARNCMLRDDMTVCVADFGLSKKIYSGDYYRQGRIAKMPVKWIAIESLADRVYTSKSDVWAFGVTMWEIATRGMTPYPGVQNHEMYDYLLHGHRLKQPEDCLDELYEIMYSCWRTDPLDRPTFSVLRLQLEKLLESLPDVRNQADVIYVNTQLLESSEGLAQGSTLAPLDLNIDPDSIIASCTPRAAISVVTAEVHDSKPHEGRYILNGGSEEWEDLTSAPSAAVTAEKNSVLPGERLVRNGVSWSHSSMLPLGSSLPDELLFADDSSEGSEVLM

[10] = test system: U-87 MG; test: Antitumor activity against luciferase-fused human U87MG cells orthotopically xenografted in nude mouse assessed as tumor growth inhibition at 3.125 mg/kg, po qd for 4 weeks by bioluminescence imaging relative to control; assay type: functional, U-87MG ATCC; details: 672 h, read-out: TGI
[11] = test system: Proto-oncogene tyrosine-protein kinase receptor Ret (Homo sapiens), P07949 [V804L]; test: Inhibition of recombinant human GST-tagged RET V804L mutant expressed in baculovirus expression system at 0.1 uM by Z'-Lyte assay relative to control
[12] = target: Tyrosine-protein kinase receptor UFO (Homo sapiens) (UniProt P30530); test: Inhibition of recombinant human N-terminal GST tagged AXL (473-end residues) expressed in baculovirus infected Sf9 cells at 0.1 uM by Z'-Lyte assay relative to control
[13] = AUC (0 to infinity) in ICR mouse at 5 mg/kg, po administered as single dose by LC-MS/MS analysis; assay type: ADME, organism-based; design: dose 5 mg/kg, route oral, time infinity; details: in vivo
[14] = Half life in CD-1 mouse plasma at 10 mg/kg, po administered as single dose by LC-MS/MS analysis; assay type: ADME, organism-based
[15] = test system: Epidermal growth factor receptor (Homo sapiens), P00533 [UNDEFINED MUTATION]; test: Inhibition of recombinant human EGFR d746 to 750 deletion/T790M mutant at 1 uM by TR-FRET assay relative to control
[16] = target: Misshapen-like kinase 1 (Homo sapiens) (UniProt Q8N4C8); test: Inhibition of recombinant human GST-tagged MINK (1 to 320 residues) expressed in baculovirus expression system at 0.1 uM by Z'-Lyte assay relative to control
Misshapen-like kinase 1 (Homo sapiens), sequence (Q8N4C8 whole entry, looked up, the tested form may be a part): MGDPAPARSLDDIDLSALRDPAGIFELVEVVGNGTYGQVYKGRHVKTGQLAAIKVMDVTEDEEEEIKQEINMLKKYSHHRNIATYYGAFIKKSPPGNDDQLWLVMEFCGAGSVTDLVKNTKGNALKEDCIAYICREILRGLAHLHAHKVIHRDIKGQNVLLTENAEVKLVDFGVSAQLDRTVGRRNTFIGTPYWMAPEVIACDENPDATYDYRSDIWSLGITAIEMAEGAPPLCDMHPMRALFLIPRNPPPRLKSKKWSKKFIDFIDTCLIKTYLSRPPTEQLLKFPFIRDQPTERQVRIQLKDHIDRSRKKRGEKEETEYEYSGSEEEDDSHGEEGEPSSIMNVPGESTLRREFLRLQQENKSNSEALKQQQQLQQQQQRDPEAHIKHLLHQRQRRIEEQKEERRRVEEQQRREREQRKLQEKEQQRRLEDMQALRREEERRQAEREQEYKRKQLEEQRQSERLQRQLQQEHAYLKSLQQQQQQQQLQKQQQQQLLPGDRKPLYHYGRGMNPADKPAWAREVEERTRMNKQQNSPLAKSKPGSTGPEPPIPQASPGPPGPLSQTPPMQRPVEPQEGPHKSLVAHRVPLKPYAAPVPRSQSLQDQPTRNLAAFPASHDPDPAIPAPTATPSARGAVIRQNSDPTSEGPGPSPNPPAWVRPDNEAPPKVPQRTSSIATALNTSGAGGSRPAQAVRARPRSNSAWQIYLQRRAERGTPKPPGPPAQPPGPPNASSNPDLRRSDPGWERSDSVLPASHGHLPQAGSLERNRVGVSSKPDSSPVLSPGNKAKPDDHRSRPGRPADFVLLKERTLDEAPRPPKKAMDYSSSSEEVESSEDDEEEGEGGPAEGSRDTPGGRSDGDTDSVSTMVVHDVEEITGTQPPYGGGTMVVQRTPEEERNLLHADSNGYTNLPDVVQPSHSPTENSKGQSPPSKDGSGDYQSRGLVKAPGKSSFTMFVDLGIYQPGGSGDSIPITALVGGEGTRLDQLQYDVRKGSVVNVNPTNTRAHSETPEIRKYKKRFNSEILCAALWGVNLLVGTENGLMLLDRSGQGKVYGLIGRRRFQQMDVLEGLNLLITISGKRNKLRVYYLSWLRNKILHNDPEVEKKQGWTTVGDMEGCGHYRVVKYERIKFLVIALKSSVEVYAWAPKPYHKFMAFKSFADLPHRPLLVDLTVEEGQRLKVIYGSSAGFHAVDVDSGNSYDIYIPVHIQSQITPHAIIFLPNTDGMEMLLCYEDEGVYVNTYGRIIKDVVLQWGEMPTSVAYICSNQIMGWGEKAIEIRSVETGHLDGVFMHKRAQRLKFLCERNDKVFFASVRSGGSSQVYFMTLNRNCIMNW

[17] = AUC (0 to 24 hrs) in ICR mouse at 5 mg/kg, po administered as single dose by LC-MS/MS analysis; assay type: ADME, organism-based; design: time < 24 hr, dose 5 mg/kg, route oral; details: in vivo
[18] = target: Tyrosine-protein kinase JAK3 (Homo sapiens) (UniProt P52333); test: Inhibition of recombinant human GST-tagged JAK3 expressed in baculovirus expression system at 1 uM by TR-FRET assay relative to control
[19] = target: Casein kinase II subunit alpha (Homo sapiens) (UniProt P68400); test: Inhibition of recombinant full length human His-tagged CK2alpha1 expressed in baculovirus expression system at 1 uM by Z'-Lyte assay relative to control
[20] = target: Leucine-rich repeat serine/threonine-protein kinase 2 (Homo sapiens) (UniProt Q5S007); test: Inhibition of recombinant human GST-tagged LRRK2 (970 to 2527 residues) expressed in baculovirus expression system at 0.1 uM by TR-FRET assay relative to control
[21] = target: G protein-coupled receptor kinase 3 (Homo sapiens) (UniProt P35626); test: Inhibition of recombinant human full length GST-tagged GRK3 expressed in baculovirus expression system at 0.1 uM by Z'-Lyte assay relative to control
[22] = target: Ephrin type-B receptor 2 (Homo sapiens) (UniProt P29323); test: Inhibition of recombinant human GST-tagged EPHB2 cytoplasmic domain (616 to 884 residues) expressed in baculovirus expression system at 1 uM by Z'-Lyte assay relative to control
[23] = Fraction unbound in CD-1 mouse plasma at 2 uM incubated for 4 hrs by LC/MS/MS analysis based equillibriun dialysis method; assay type: ADME, cell-free
[24] = Cmax in CD-1 mouse brain at 10 mg/kg, po administered as single dose by LC-MS/MS analysis; assay type: ADME, organism-based; design: dose 10 mg/kg, route oral
[25] = AUC (0 to 48 hrs) in CD-1 mouse brain at 10 mg/kg, po administered as single dose by LC-MS/MS analysis; assay type: ADME, organism-based; design: dose 10 mg/kg, time < 48 hr, route oral; details: in vivo
[26] = target: Protein kinase C beta type (Homo sapiens) (UniProt P05771); test: Inhibition of PKCbeta2 (unknown origin) at 1 uM by Z'-Lyte assay relative to control
Protein kinase C beta type (Homo sapiens), sequence (P05771 2-671 limits assumed): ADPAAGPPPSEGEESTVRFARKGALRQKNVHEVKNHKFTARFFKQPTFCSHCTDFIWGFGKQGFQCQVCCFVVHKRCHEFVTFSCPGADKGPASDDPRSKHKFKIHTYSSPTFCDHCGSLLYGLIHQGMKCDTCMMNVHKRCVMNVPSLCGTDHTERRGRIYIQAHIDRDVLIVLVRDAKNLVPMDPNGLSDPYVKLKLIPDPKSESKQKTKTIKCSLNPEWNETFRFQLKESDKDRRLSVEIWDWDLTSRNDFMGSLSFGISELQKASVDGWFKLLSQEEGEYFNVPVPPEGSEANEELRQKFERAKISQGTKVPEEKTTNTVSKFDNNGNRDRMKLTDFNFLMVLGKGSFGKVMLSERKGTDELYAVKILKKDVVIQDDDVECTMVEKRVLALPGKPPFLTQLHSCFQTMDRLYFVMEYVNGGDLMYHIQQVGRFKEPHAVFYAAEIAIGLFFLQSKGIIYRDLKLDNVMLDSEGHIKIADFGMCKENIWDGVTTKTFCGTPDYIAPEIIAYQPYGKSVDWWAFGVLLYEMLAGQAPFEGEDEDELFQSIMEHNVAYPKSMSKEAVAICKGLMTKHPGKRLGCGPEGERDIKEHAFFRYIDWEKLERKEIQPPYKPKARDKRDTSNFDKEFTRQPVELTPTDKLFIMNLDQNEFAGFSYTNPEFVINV

[27] = target: Calcium/calmodulin-dependent protein kinase type II subunit beta (Homo sapiens) (UniProt Q13554); test: Inhibition of recombinant full length human His-tagged CAMK2B expressed in baculovirus expression system at 1 uM by Z'-Lyte assay relative to control
[28] = test system: U-87 MG; test: Antitumor activity against luciferase-fused human U87MG cells orthotopically xenografted in nude mouse assessed as tumor growth inhibition at 50 mg/kg, po qd for 4 weeks by bioluminescence imaging relative to control; assay type: functional, U-87MG ATCC; details: 672 h, read-out: TGI
[29] = target: G protein-coupled receptor kinase 6 (Homo sapiens) (UniProt P43250); test: Inhibition of recombinant human full length GST-tagged GRK6 expressed in baculovirus expression system at 0.1 uM by Z'-Lyte assay relative to control
G protein-coupled receptor kinase 6 (Homo sapiens), sequence (P43250 whole entry, looked up): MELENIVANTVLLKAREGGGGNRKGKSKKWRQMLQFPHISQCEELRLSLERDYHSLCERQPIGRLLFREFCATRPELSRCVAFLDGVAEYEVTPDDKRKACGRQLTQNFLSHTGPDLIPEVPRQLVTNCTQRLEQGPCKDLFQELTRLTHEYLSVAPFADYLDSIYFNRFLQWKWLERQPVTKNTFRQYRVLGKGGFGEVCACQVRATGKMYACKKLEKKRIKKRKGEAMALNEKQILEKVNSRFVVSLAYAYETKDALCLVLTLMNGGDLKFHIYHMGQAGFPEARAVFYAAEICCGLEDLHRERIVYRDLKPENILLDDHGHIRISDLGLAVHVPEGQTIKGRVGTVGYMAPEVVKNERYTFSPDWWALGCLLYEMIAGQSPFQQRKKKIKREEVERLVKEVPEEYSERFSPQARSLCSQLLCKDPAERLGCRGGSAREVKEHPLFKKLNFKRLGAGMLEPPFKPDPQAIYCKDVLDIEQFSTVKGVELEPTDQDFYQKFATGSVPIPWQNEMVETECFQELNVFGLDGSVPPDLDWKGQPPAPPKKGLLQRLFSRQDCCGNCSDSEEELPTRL

[30] = test system: Mitogen-activated protein kinase kinase kinase 7; test: Inhibition of TAK1 (unknown origin) at 0.1 uM by TR-FRET assay relative to control; details: Homo sapiens
[31] = target: CDK6/cyclin D3 (Homo sapiens) (UniProt P30281+Q00534); test: Inhibition of recombinant full length human GST-tagged […] expressed in baculovirus expression system at 0.1 uM by TR-FRET assay relative to control

CC1=Nc2c(F)cc(-c3nc(Nc4ccc(C5CCN(C)CC5)cn4)ncc3F)cc2C12CCCC2 [CROZBACICLIB]
ILS at 6.25 mg/kg [1]: 45% | inhibition [2]: 9% | inhibition [3]: 82% | inhibition [4]: 107% | inhibition [5]: 59% | inhibition [6]: 2% | inhibition in vivo at 12.5 mg/kg [7]: 92% | inhibition [8]: -1% | inhibition [9]: 13% | inhibition in vivo at 3.125 mg/kg [10]: 62% | inhibition [11]: 2% | inhibition [12]: -1% | AUC(0-inf) [13]: 2500 ng·h/mL | half-life [14]: 6.03 h | inhibition [15]: 87% | inhibition [16]: 17% | AUC(0-t) at 24 h [17]: 2130 ng·h/mL | inhibition [18]: 92% | inhibition [19]: 23% | inhibition [20]: 12% | inhibition [21]: -7% | inhibition [22]: 3% | Fu [23]: 0.7% | Cmax [24]: 2580 ng/g | AUC [25]: 37178 ng·h/g | inhibition [26]: 52% | inhibition [27]: 87% | inhibition in vivo at 50 mg/kg [28]: 99% | inhibition [29]: -4% | inhibition [30]: 5% | inhibition [31]: 100%
